The values below come from US6936632B2, “Fused pyrrole compounds, pharmaceutical agents containing the same, and the use thereof” (Merckle GmbH, priority 2000, dated 2005).

Each structure is given as a SMILES string.

As to `NS(=O)(=O)c1ccc(-c2cc3n(c2-c2ccc(F)cc2)CCC3)cc1`, the melting point turned out to be 206.9 °C. The molecule `Cc1c(C(F)(C(F)(F)F)C(F)(F)F)c(-c2ccc(S(N)(=O)=O)cc2)c2n1CCC2` showed a melting point of 199.6 °C. For the molecule `CS(=O)(=O)c1ccc(-c2c(-c3ccc(F)cc3)cn3c2CCC3)cc1`, the melting point is 191 °C.
